The values that follow are results of earlier work, collected in patent publication US20060210638A1, “Injectable compositions of nanoparticulate immunosuppressive compounds” (Elan Pharma International Limited, priority 2005, published 2006).

For data set [1] the following is noted: in vitro studies.
For data set [2] the following is noted: reputed.
Assay in data set [3]: not given
The source holds these as a separate data set.

For data set [4] the following is noted: for reduction of mean AUC relative to fasted / reduction of mean Cmax relative to fasted: healthy volunteers (N=16).
The conditions of data set [5]: for mean clearance: IV administration.
Assay in data set [6]: not given
This is another data set of the same source.

The conditions of data set [7]: for mean time-to-peak concentration (Tmax): Rapamune Oral Solution.
Setting [8] is: 11 liver transplant patients, 15 minutes after high fat (400 kcal, 34% fat) breakfast.
Where [9] appears, read: given immediately following the meal.
The mark [10] stands for this setting: high-carbohydrate meal (668 kcal, 85% carbohydrate).
Setting [11] is: high-fat meal (848 kcal, 46% fat), 15 healthy volunteers.

Where two headings read alike, the source gives them in different places.

On to `C=CCC1C=C(C)CC(C)CC(OC)C2OC(O)(C(=O)C(=O)N3CCCCC3C(=O)OC(C(C)=CC3CCC(O)C(O)C3)C(C)C(O)CC1=O)C(C)CC2OC` (stereo not shown) [31-demethyl metabolite], for which, in data set [1], the “activity relative to tacrolimus (in words)” value is “same activity as tacrolimus”.

Regarding `C=CC[C@@H]1/C=C(\C)C[C@H](C)C[C@H](OC)[C@H]2O[C@@](O)(C(=O)C(=O)N3CCCC[C@H]3C(=O)O[C@H](/C(C)=C/[C@@H]3CC[C@@H](O)[C@H](OC)C3)[C@H](C)[C@@H](O)CC1=O)[C@H](C)C[C@@H]2OC` [Tacrolimus], where the note is “IV”, the clearance of tacrolimus is 0.483 ± 0.15 mL/min/kg, the “elimination half-life based on tacrolimus concentrations” value is 43.5 ± 11.6 h and the fecal elimination was 92.4±1.0%. Moreover, under “IV, 6 healthy volunteers”, the “mean recovery of radiolabel” value is recorded as 77.8±12.7%. Also, under “oral”, the clearance of tacrolimus is 2.87 ± 1.47 mL/min/kg, the “elimination half-life based on tacrolimus concentrations” value was 48.4 ± 12.3 h, the fecal elimination is given as 92.6±30.7% and the “mean recovery of the radiolabel” value is 94.9±30.7%. Besides, under “oral”, the urinary elimination is recorded as 2.3±1.1%. Further, the “effectiveness relative to cyclosporine” value in data set [2] is given as 100 times. In addition, the “solubility in ethanol (in words)” value in data set [3] (ethanol) is on record as “freely soluble”. Further, in data set [3] (methanol and chloroform), the “solubility in methanol and chloroform (in words)” value was “very soluble”. Moreover, in data set [3] (water), the “solubility in water (in words)” value is “practically insoluble”. Moreover, in data set [4] (setting [8]), the “decreased AUC compared to fasted state” value is given as 27±18% and the “decreased Cmax compared to fasted state” value was 50±19%. Moreover, in data set [4] (1.5 hours following the meal), the “reduction of mean AUC relative to fasted” value is 39% and the “reduction of mean Cmax relative to fasted” value was 63%. Further, in data set [4] (setting [9]), the “reduction of mean AUC relative to fasted” value is 39% and the “reduction of mean Cmax relative to fasted” value is reported as 71%. Besides, in data set [4] (setting [10]), the “decrease of mean AUC” value is 28% and the “decrease of mean Cmax” value is 65%. Moreover, in data set [4] (setting [11]), the Tmax lengthened is listed as 5 fold, the “decrease of mean AUC” value is listed as 37% and the “decrease of mean Cmax” value is given as 77%. Besides, in data set [5] (18 kidney transplant patients, trough 3 to 30 ng/mL at 10-12 hours post-dose), the “correlation coefficient of trough concentration (Cmin) with AUC” value is recorded as 0.93. In addition, the “correlation coefficient of trough concentration (Cmin) with AUC” value in data set [5] (24 liver transplant patients, concentration range 10 to 60 ng/mL) is 0.94. Further, the mean clearance in data set [5] (adult kidney transplant patients) is 1.38 mL/min/kg. Further, the mean clearance in data set [5] (adult liver transplant patients) is 0.883 mL/min/kg. The mean clearance in data set [5] (healthy volunteers) is 0.667 mL/min/kg. Besides, the “dose excreted unchanged in urine” value in data set [5] (in man) was “less than 1%”. In addition, the “ratio of whole blood concentration to plasma concentration, average” value in data set [6] (U.S. study) was 35. For the same molecule, in data set [6] (independent of concentration over 5-50 ng/mL), the plasma protein binding entry was “approximately 99%”.

Turning to `CO[C@H]1C[C@@H]2CC[C@@H](C)[C@@](O)(O2)C(=O)C(=O)N2CCCC[C@H]2C(=O)O[C@H]([C@H](C)C[C@@H]2CC[C@@H](O)[C@H](OC)C2)CC(=O)[C@H](C)/C=C(\C)[C@@H](O)[C@@H](OC)C(=O)[C@H](C)C[C@H](C)/C=C/C=C/C=C/1C` [Sirolimus, (3S,6R,7E,9R,10R,12R,14S,15E,17E,19E,21S,23S,26R,27R ,34aS)-9,10,12,13,14,21,22,23,24,25,26,27,32,33,34,34a-hexadecahydro-9,27-dihydroxy-3-[(1 R )-2-[(1S,3R,4R)-4-hydroxy-3-methoxycyclohexyl]-1-methylethyl]-10,21-dimethoxy-6,8,12,14,20,26-hexamethyl-23,27-epoxy-3H-pyrido[2,1-c] [1,4] oxaazacyclohentriacontine-1,5,11,28,29(4H,6H,31H)-pentone], the “mean time-to-peak concentration (Tmax)” value in data set [7] (multiple oral doses, renal transplant recipients) is on record as “approximately 2 hours”. Further, the “mean time-to-peak concentration (Tmax)” value in data set [7] (single dose, healthy subjects) was “approximately 1 hour”. Also, the systemic availability result in data set [7] (after Rapamune Oral Solution) is “approximately 14%”. Moreover, the “stability when exposed to water (in words)” value in data set [3] (aqueous medium) is given as “rapidly hydrolyzes”. Further, the “solubility in benzyl alcohol, chloroform, acetone, and acetonitrile (in words)” value in data set [3] (benzyl alcohol, chloroform, acetone, acetonitrile) is on record as “freely soluble”. Further, in data set [3] (water), the solubility in water is given as 20 micrograms per mL and the “solubility in water (in words)” value is reported as “insoluble”.
